Results: PMC8003416, “Modulation of Human Phenylalanine Hydroxylase by 3-Hydroxyquinolin-2(1H)-One Derivatives” (Biomolecules, 2021)
“Also recorded” adds a separate entry of the source. Read-outs that look alike come from different tables or passages of the source.

Key:
[1] = molecular target: T1, human phenylalanine hydroxylase (hPAH) (Homo sapiens, UniProt P00439); assay: Surface plasmon resonance, immobilized hPAH; assay type: binding; conditions: for Kd / KD (steady-state affinity constant): 25 °C, 3HQs up to 200 μM, no saturation (lower limits); for Kd: read-out: KD (steady-state affinity constant)
T1 construct: Recombinant full-length wild-type (WT) hPAH was expressed in E. coli Top10 cells in fusion with a hexa-histidyl peptide; made in house; host or cells: E. coli Top10
T1 sequence (P00439 1-452): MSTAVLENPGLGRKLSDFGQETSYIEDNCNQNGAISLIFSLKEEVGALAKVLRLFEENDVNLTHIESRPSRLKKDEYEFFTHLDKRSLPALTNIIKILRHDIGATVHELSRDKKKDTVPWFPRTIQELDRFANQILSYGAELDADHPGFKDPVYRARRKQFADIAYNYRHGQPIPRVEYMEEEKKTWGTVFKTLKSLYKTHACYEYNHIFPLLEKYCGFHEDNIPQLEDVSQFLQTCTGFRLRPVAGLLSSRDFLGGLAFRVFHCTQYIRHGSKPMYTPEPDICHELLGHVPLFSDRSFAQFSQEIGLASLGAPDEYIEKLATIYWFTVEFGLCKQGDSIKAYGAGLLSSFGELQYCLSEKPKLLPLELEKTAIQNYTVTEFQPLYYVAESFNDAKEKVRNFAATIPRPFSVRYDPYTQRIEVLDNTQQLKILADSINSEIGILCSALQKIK
Method: The affinity of hPAH for 3HQs was evaluated by surface plasmon resonance (SPR) using a Biacore 4000 (GE Healthcare) instrument. All assays were carried out at 25 °C. Optimization of hPAH immobilization on a carboxymethylated dextran (CM5) matrix of the sensor chip was initiated by performing a pH scouting, using as buffers 10 mM sodium acetate (pH 5.0, 5.2, 5.5 and 5.8), 10 mM Bis-Tris (pH 6.0, 6.2 and 6.5), and 10 mM sodium phosphate (pH 7.0). hPAH was diluted to 10 µg/mL in the best immobilization buffer (10 mM sodium acetate pH 5.5) and immobilized onto the CM5 sensor chip using the standard amine coupling procedure. The HBS-N buffer, consisting of 10 mM HEPES pH 7.4 and 150 mM NaCl, was used as background buffer. Prior to immobilization, the carboxymethylated surface of the chip was activated with a 1:1 ratio of 400 mM 1-ethyl-3-(3-dimethylaminopropyl)-carbodiimide and 100 mM N-hydroxysuccinimide for 10 min. The hPAH was coupled to the surface with a 1 to 2 min injection time at a flow rate of 10 μL/min in order to reach 2000 to 5000 RU. The remaining activated carboxymethylated groups were blocked with a 7 min injection of 1 M ethanolamine pH 8.5.
The 3HQs were directly diluted in running buffer (10 mM HEPES, 150 mM NaCl, 5 mM MgCl2, 0.1 mM EDTA, 0.05% (v/v) Tween-20, 1 mM DTT, pH 7.2, and 2% DMSO) and injected at ten different concentrations using two-fold dilutions series, from 200 µM to ≈ 0.4 μM. The interaction between hPAH and L-Phe in the ≈ 2–1000 μM range was also analyzed, for comparison with literature values. Moreover, L-Phe (at 1 mM) was used as a positive control to collect information on surface integrity and activity throughout the experiment. For competition experiments, 1 mM L-Phe was added to the running buffer. All sensorgrams were processed by first subtracting the binding response recorded from the control surface (reference spot), followed by subtracting an average of the buffer blank injections from the reaction spot. Interactions were assessed from the obtained plots of steady-state SPR response levels against 3HQs concentration, employing the provided Biacore 4000 evaluation software.

[2] = molecular target: T1, human phenylalanine hydroxylase (hPAH); assay: hPAH enzymatic activity assay (NA, 3HQ-A and Phe/3HQ-A conditions); assay type: biochemical; conditions: 100 μM compound; for remaining activity at 100 µM: read-out: hPAH residual activity vs control
Method: (§1) The hPAH activity was measured essentially as previously described. Briefly, the enzymatic reaction was performed in a 200 μL final volume, containing 250 mM Na-HEPES, pH 7, 0.1 mg/mL catalase (Sigma-Aldrich; St. Louis, MO, USA), 5 μg (final concentration of 0.112 μM of tetramer) of recombinant hPAH tetramers and 100 μM (NH4)2Fe(II)SO4. Using 100 μM L-Phe and 100 μM of tested compound, three experimental conditions were used to study the compounds’ modulatory effect, namely: non activated (NA), 3HQ-activated (3HQ-A) and substrate/3HQ-activated (Phe/3HQ-A) (Supplementary Figure S3). The reaction was started by addition of 75 μM BH4 (Schircks Laboratories; Bauma, Switzerland) prepared in 5 mM ascorbic acid. In the NA assay, the L-Phe substrate and tested compounds were added together with 75 µM BH4 at the start of the hydroxylation reaction. In the 3HQ-A condition, hPAH was pre-incubated with the tested compound for 4 min at 25 °C and the reaction was started by the addition of BH4 together with L-Phe. In the Phe/3HQ-A condition, hPAH was pre-incubated simultaneously with L-Phe and the tested compound (4 min, 25 °C). Appropriate control reactions were performed where the compounds were omitted and 1% DMSO was used. Kinetic parameters were determined using variable concentrations of L-Phe (25 to 2500 μM) and fixed concentrations of BH4 (75 μM) and tested compound (100 μM). After a 1-min incubation, the reaction was stopped, and the amount of L-Tyr produced was quantified by HPLC as previously described. The specific hPAH enzymatic activity is expressed as nmol of L-Tyr produced during 1 min per mg of protein (nmol L-Tyr.min^−1.mg^−1). The steady-state kinetic data were analyzed by nonlinear regression analysis using GraphPad Prism (La Jolla, CA, USA). Data was fitted to the modified Hill equation accounting for cooperative substrate binding as well as substrate inhibition (Equation (1)), to the modified Michaelis–Menten equation which accounts for substrate inhibition (Equation (2)) and to the non-modified Michaelis–Menten equation:v = (Vmax + Vi ([S]^x/Ki^x))/(1 + (K^h/[S]^h) + ([S]^x/Ki^x))(1) v = (Vmax [S])/(Km + [S](1 + [S]/Ki))(2)

[3] = molecular target: T2, hPAH non-heme ferric center (Homo sapiens, UniProt P00439); assay: Electron paramagnetic resonance spectroscopy; conditions: ≈100 μM hPAH monomer, equimolar 3HQ, 4K
T2 construct: Recombinant full-length wild-type (WT) hPAH was expressed in E. coli Top10 cells in fusion with a hexa-histidyl peptide; made in house; host or cells: E. coli Top10
T2 sequence (P00439 1-452): T1 sequence (P00439 1-452)
Method: EPR spectra of hPAH (at ≈100 μM monomer) in the absence or presence of equimolar amounts of 3HQs were recorded at 4K in a Bruker EMX spectrometer (Billerica, MA, USA) equipped with an ESR-900 continuous flow helium cryostat from Oxford Instruments (Abingdon, Johnson, UK). Spectra were recorded for control samples containing 100 μM FeCl3 solutions incubated with equimolar amounts of 3HQs to evaluate direct binding of the compounds to free Fe^3+ in solution. Microwave frequency: 9.39 GHz; microwave power, 2 mW; modulation amplitude, 1 mT.

[4] = molecular target: T1, human phenylalanine hydroxylase (hPAH); assay: Steady-state kinetics of hPAH for L-Phe; assay type: biochemical; conditions: 100 μM 3HQ; for S0.5 (L-Phe concentration at half-maximal activity) / h (Hill coefficient) / ki (substrate inhibition): 75 μM BH4, 25 °C; for S0.5 (L-Phe concentration at half-maximal activity): Km for compounds 3 and 11 (Michaelis–Menten fits); for Vmax: 75 μM BH4, L-Phe 25 μM to 2.5 mM, 25 °C; for Activation Ratio (L-Phe activation): 100 μM substrate; for kcat/S0.5 (catalytic efficiency): calculated with hPAH subunit MM 55 kDa
Method: as §1

| SMILES | ΔRU reduction in the presence of L-Phe ([1]; 1 mM L-Phe in running buffer) | Kd [1] | fold activation by L-Phe (Phe/3HQ-A vs. 3HQ-A) ([2]; 100 μM L-Phe) | remaining activity at 100 µM ([2]; 3HQ-A condition (4 min pre-incubation with compound, 25 °C)) | hPAH activity, fold increase vs control ([2]; NA (non-activated) condition, 100 μM L-Phe, 1% DMSO control) | remaining activity at 100 µM ([2]; Phe/3HQ-A condition (pre-incubation with L-Phe and compound)) | change of hPAH EPR spectrum [3] | effect on hPAH kinetic behaviour [4] | S0.5 (L-Phe concentration at half-maximal activity) [4] | Vmax [4] | Activation Ratio (L-Phe activation) [4] | kcat/S0.5 (catalytic efficiency) [4] | h (Hill coefficient) [4] | ki (substrate inhibition) [4] | KD (steady-state affinity constant) [1] | remaining activity at 100 µM ([2]; NA (non-activated) condition) | fold enzyme activation by compound (3HQ-A vs. NA) [2] |
| --- | --- | --- | --- | --- | --- | --- | --- | --- | --- | --- | --- | --- | --- | --- | --- | --- | --- |
| CCOC(=O)[C@H](Cc1ccccc1)NC(=O)c1c(O)c(=O)[nH]c2ccc(OC(F)(F)F)cc12 [Compound 3] | > 50% | ≥ 121 µM | 1.3 fold | 69% | 1.1 fold | 57% | significant increase in the intensity of this main band at g = 4.25 | weak competitive inhibitors; also recorded: loss of cooperativity | 206 ± 99 µM | 4.82 ± 0.64 10^3 nmol Tyr.min^−1.mg^−1 | 1.3 | 21700 M⁻¹ s⁻¹ |  |  |  |  |  |
| O=C(NCCc1ccccc1)c1c(O)c(=O)[nH]c2ccc(OC(F)(F)F)cc12 [Compound 8] |  | ≥ 200 µM | 1.7 fold |  |  |  | less rhombic EPR signals appeared | weak competitive inhibitors | 115 ± 9 µM | 4.38 ± 0.94 10^3 nmol Tyr.min^−1.mg^−1 | 1.7 | 35000 M⁻¹ s⁻¹ | 1.2 ± 0.3 | 7.2 ± 0.2 mM |  |  |  |
| COC(=O)CC[C@H](NC(=O)c1c(O)c(=O)[nH]c2ccc(OC(F)(F)F)cc12)C(=O)OC [Compound 9] |  |  | 1.4 fold |  |  |  | less rhombic EPR signals appeared |  | 108 ± 34 µM | 3.94 ± 0.64 10^3 nmol Tyr.min^−1.mg^−1 | 1.4 | 33300 M⁻¹ s⁻¹ | 1.9 ± 0.8 | 23.3 ± 0.5 mM | at least mM affinity | 58% |  |
| COC(=O)CNC(=O)c1c(O)c(=O)[nH]c2ccc(OC(F)(F)F)cc12 [Compound 11] |  |  | 1.5 fold |  |  |  | less rhombic EPR signals appeared | loss of cooperativity | 386 ± 97 µM | 7.75 ± 1.23 ** 10^3 nmol Tyr.min^−1.mg^−1 | 1.5 |  |  | 2.5 ± 0.3 mM | at least mM affinity |  | 1.6 fold |
| N[C@@H](Cc1ccccc1)C(=O)O [L-Phe, L-phenylalanine, reference compound] |  | 47 ± 8 µM |  |  |  |  |  |  |  |  |  |  |  |  |  |  |  |
